Values of other authors, collected in patent publication US20220000787A1, “DELAYED RELEASE PHARMACEUTICAL COMPOSITION OF PREDNISONE AND PREPARATION THEREOF” (PIRAMAL PHARMA LIMITED, priority 2020, published 2022).

Solubility in alcohol, chloroform, dioxane, and methanol (alcohol, chloroform, dioxane, methanol): slightly soluble | Solubility in water (water): very slightly soluble
SMILES: C[C@]12C=CC(=O)C=C1CC[C@@H]1[C@@H]2C(=O)C[C@@]2(C)[C@H]1CC[C@]2(O)C(=O)CO [Prednisone, 17,21-dihydroxypregna-1,4-diene-3,11,20-trione]
